The values that follow come from PMC3206494, “Discovery of potent, novel, non-toxic anti-malarial compounds via quantum modelling, virtual screening and in vitro experimental validation” (Malaria Journal, 2011).

Each structure is given as a SMILES string. Like-named read-outs stand apart in the source and are kept apart here.

One series concerns mammalian cytotoxicity. In words: Toxicity assay, colorimetric MTT assay (mammalian cytotoxicity). Particulars: data from two independent assays. The class given is cell-based. The procedure: Toxicity was determined by using the colorimetric 3-(4,5-dimethylthiazol-2-yl)-2,5-diphenyltetrazoliumbromide (MTT) assay. The toxicity assays were performed at the Swiss Tropical Institute, Basel, Switzerland.
A general note: Tetrazolium assays rely on reduction of a dye to a coloured formazan, in cell work by metabolically active cells.

The subject of the next series is P. falciparum. The experiment in a line: In vitro anti-malarial activity, [3H]-hypoxanthine incorporation assay. Particulars: Plasmodium falciparum. It counts as cell-based. The procedure: The in vitro anti-malarial activity was measured using the [3H]-hypoxanthine incorporation assay with various strains of P. falciparum (Roche). Results were expressed as the concentration corresponding to 50% inhibition. The anti-malarial assays were performed at the Swiss Tropical Institute, Basel, Switzerland.

A short description of series [1]: Solubility in DMSO (footnote to Table 2). Also on record: key: *: Not fully soluble in DMSO. The class given is physicochemical. To be noted: footnote mark on the anti-malarial activity value. The text has this: Table 2 Summary of anti-malarial activity and cytotoxicity | column: Average Anti-malarial Activity**(ng/ml)
Setting [2] is: P. falciparum, in vitro, data from two independent assays, read-out: Average Anti-malarial Activity (concentration corresponding to 50% inhibition).
The mark [3] stands for this setting: P. falciparum, in vitro, read-out: IC50 (anti-malarial activity).

Consider `Cc1ccc(Cn2cc(CCC(=O)NCCCN3CC(C)CC(C)C3)c3ccccc32)cc1` (stereo not shown) [GR-M007], for which the “Average Cytotoxicity” value in the series with mammalian cytotoxicity stood at 10420 ng/mL. Also, the IC50 with P. falciparum (setting [2]) amounted to 0.446 µg/mL; with P. falciparum (setting [3]), 0.999 µM.
Consider `CC(NC(=O)CN1CCCN(CC(=O)NC(C)(C)C)CC1)c1ccc2c(c1)CCCC2` (stereo not shown) [GR-M002], for which the IC50 is 5.38 µg/mL in the series with P. falciparum (setting [2]) and 12.5 µM in the series with P. falciparum (setting [3]).
In the case of `Cc1cccc[n+]1CCCCCCCCCC[n+]1ccccc1C` [GR-M009], the IC50 in the series on P. falciparum (setting [2]) was 0.013 µg/mL; in the series with P. falciparum (setting [3]), 0.027 µM.
In the case of `CCN(CC)CCCC(C)Nc1ccnc2cc(Cl)ccc12` (stereo not shown) [chloroquine, reference compound], the figures for the IC50 with P. falciparum (read-out: Average Anti-malarial Activity (concentration corresponding to 50% inhibition)) and in the series with P. falciparum (read-out: IC50 (anti-malarial activity)) were 0.0042 µg/mL and 0.013 µM, respectively.
For the compound `Cc1ccc2c(c1)N(CCCC(=O)NCCCN1CCC(Cc3ccccc3)CC1)C(=O)CO2` [GR-M006], the IC50 in the series on P. falciparum (setting [2]) is 1.63 µg/mL; in the series with P. falciparum (setting [3]), 3.52 µM.
Consider `CC1=C(CCC(C)N(C)Cc2ccc(OCCCN3CCCC3)cc2)C(C)(C)CCC1` (stereo not shown) [GR-M010], for which the “Average Cytotoxicity” value in the series on mammalian cytotoxicity was 4860 ng/mL. In addition, the IC50 was determined as 0.172 µg/mL in the series with P. falciparum (setting [2]) and 0.332 µM in the series with P. falciparum (setting [3]).
In the case of `CC(C)(C)c1cnnn1-c1ccc(C=Cc2ccc(C=Cc3ccc4ccccc4n3)cc2)cc1` [GR-M001], in the series with P. falciparum (setting [3]), the IC50 was greater than 20 µM. Also, the “Solubility in DMSO” value in series [1] is “*”.
As for `Cc1cccc(C)c1OCCOCC(O)CN1CCN(Cc2ccc3c(c2)OCO3)CC1` (stereo not shown) [GR-M005], the IC50 with P. falciparum (setting [2]) was found to be 9.74 µg/mL; in the series on P. falciparum (setting [3]), 18.9 µM.
With `O=CN1CCN(CC(O)COc2ccc(OCC(O)CN3CCN(C=O)CC3)cc2)CC1` (stereo not shown) [GR-M003], the IC50 in the series on P. falciparum (setting [3]) is greater than 20 µM.
Turning to `Cc1ccc(C)c(NCC(O)COc2ccc(OCC(O)CNc3cc(C)ccc3C)cc2)c1` (stereo not shown) [GR-M004], the IC50 in the series on P. falciparum (setting [2]) was found to be 4.78 µg/mL; in the series with P. falciparum (setting [3]), 10.3 µM.
In the case of `CC(C)(C)CC(C)(C)Cc1ccc(OCCOCC[N+](C)(C)Cc2ccccc2)cc1` [GR-M011], the “Average Cytotoxicity” value with mammalian cytotoxicity came out at 3250 ng/mL. Besides, the IC50 came out at 0.086 µg/mL in the series with P. falciparum (setting [2]) and 0.185 µM in the series with P. falciparum (setting [3]).
Take `COc1cc([C@@H]2c3cc4c(cc3[C@H](O)[C@H]3COC(=O)[C@H]23)OCO4)cc(OC)c1OC` [Podophyllotoxin, reference compound]: the “Average Cytotoxicity” value with mammalian cytotoxicity worked out at 9.5 ng/mL.
